Series [1] has as its system modified luciferase expression. The experiment in a line: Expression of Luc in different organs (liver, lung, spleen, femur) 6 hours after intravenous administration. Type of series: in vivo. The following applies: i.v., 0.5 mpk. As to the method:
The efficacy of the nanoparticle compositions presented in Tables 1, 1a, 17-1, 19-1, 20-1 and 21-1 was further evaluated by measuring the expression of modified luciferase in the liver, lung, spleen, and femur upon administration of a given composition. Formulations were administered intravenously to mice (n=3) at a dosage of 0.5 mpk and bioluminescence measured after 6 hours. The standard MC3 formulation and a PBS control were also tested.

A short description of series [2]: pKa of nanoparticle compositions. The format is physicochemical.
Series [3] is described as follows: Encapsulation efficiency of RNA (QUANT-IT RIBOGREEN RNA assay). The format is physicochemical. As to conditions: for encapsulation efficiency, rank within the named table (in words): comparison amongst compositions. The method, boiled down: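 RiboGreen fluorescence (ex ~480, em ~520 nm) measured after 15 min at 37 °C on samples at ~5 μg/mL in TE, pH 7.5, ± 2% Triton X-100 solution. After blank subtraction, free RNA is given as intact-sample signal divided by disrupted-sample signal.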

The subject of a further series is IP-10. The series is described as follows: Cytokine production induced by sample formulations: IP-10. Type of series: in vivo. As to conditions: mice, i.v., 0.5 mpk, 6 hours, in pg/mL (unit assumed). The source says:
(§1) The introduction of foreign material into a mammalian body induces an innate immune response that promotes cytokine production. Such immune responses to, for example, nanoparticle compositions including therapeutic and/or prophylactic agents, are undesirable. The induction of certain cytokines is thus measured to evaluate the […] of nanoparticle compositions. The concentrations of various cytokines in mice upon intravenous administration of nanoparticle compositions presented in Tables 1, 1a, 17-1, 19-1, 20-1 and 21-1 at a dosage of 0.5 mpk was measured at 6 hours. The standard MC3 formulation and a PBS control were also tested.

A short description of series [4]: Particle size and polydispersity index of nanoparticle compositions (Zetasizer Nano ZS). Type of series: physicochemical. Put shortly: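 Values are size and PDI readings from a Zetasizer Nano ZS. Measurements are taken in 1×PBS; zeta potential, by contrast, uses 15 mM PBS.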
Another series deals with IL-6. The series is described as follows: Cytokine production induced by sample formulations: IL-6. Type of series: in vivo. As to conditions: mice, i.v., 0.5 mpk, 6 hours; for IL-6: in pg/mL (unit assumed).
Description: as §1

In series [5] the test system is luciferase (Luc) mRNA expression. The experiment in a line: Expression of Luc induced by sample formulations, whole-body bioluminescence after intravenous administration. Type of series: in vivo. As to conditions: mice, i.v., 0.5 mg/kg. Put shortly: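 Read-out is whole-body bioluminescence at 3, 6 and 24 h after a single intravenous dose of 0.5 mg/kg Luc mRNA in nanoparticle formulations. Groups of n=6 mice; PBS and standard MC3 formulation as references.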

Where [6] appears, read: Table 20-1, rows without footnote mark.
Where [7] appears, read: Table 1, rows without footnote mark.
[8] abbreviates: Table 1, * lipid:DSPC:Chol:PEG-DMG 50:10:38.5:1.5.

Consider `CCCCCCCCCCCCCCN(CCO)CCN(CCCCCCCCCCCC)CCCCCCCCCCCC` [Compound 20-24, 2-((2-(Didodecylamino)ethyl)(tetradecyl)amino)ethan-1-ol], for which, in series [1] (Table 20-3, mice), the “Total Flux Liver” value stood at 4.05E+07, the “Total Flux Lung” value is 1.08E+05 and the “Total Flux Spleen” value turned out to be 1.11E+06. The molecule also showed a pKa in series [2] (setting [6]) of 6.06. Besides, the “EE (%)” value in series [3] (setting [6]) was 96.9%. In addition, the IP-10 in the series with IP-10 (Table 20-4, formula (20-I)) is recorded as 1678.6. In series [4] (setting [6]), the PDI stood at 0.038 and the “Size (nm)” value was 90.6 nm. Besides, the IL-6 in the series with IL-6 (Table 20-4, formula (20-I)) came to 67.1. In addition, in series [5] (Table 20-2), the “Total Flux 3 hours” value is on record as 7.47E+08, the “Total Flux 6 hours” value is given as 1.64E+08 and the “Total Flux 24 hours” value is listed as 9.72E+06.

As to `CCCCCCCCCCCCN(CCCCCCCCCCCC)CCN(CCO)CCCCCCCC(=O)OCCCCCCCCC` [Compound 20-8, Nonyl 8-((2-(didodecylamino)ethyl)(2-hydroxyethyl)amino)octanoate], in series [1] (Table 20-3, mice), the “Total Flux Femur” value was 1.62E+06, the “Total Flux Liver” value is given as 8.09E+08, the “Total Flux Lung” value came out at 3.45E+06 and the “Total Flux Spleen” value came to 2.70E+07. In series [2] (setting [6]), the pKa is recorded as 6.43. Moreover, the “EE (%)” value in series [3] (setting [6]) was 96.6%. The molecule also returned an IP-10 with IP-10 (Table 20-4, formula (20-I)) of 134.0. Further, in series [4] (setting [6]), the PDI is reported as 0.141 and the “Size (nm)” value amounted to 67.9 nm. For the same molecule, the “particle size, rank within the named table (in words)” value in series [4] (comparison amongst compositions) is on record as “smallest particles”. The molecule also yielded an IL-6 with IL-6 (Table 20-4, formula (20-I)) of 18.4. In addition, in series [5] (Table 20-2), the “Total Flux 3 hours” value is given as 2.76E+09, the “Total Flux 6 hours” value is 4.37E+09 and the “Total Flux 24 hours” value was determined as 1.30E+08.

Take `CCCCCCCCCCCCN(CCCCCCCCCCCC)CCN1CCN(CCN(CCCCCC)CCN(CCCCCC)CCCCCC)CC1` [Compound 17, N^1-(2-(4-(2-(Didodecylamino)ethyl)piperazin-1-yl)ethyl)-N^1,N^2,N^2-trihexylethane-1,2-diamine]: in series [1] (Table 3, mice), the “Total Flux Femur” value amounted to 6.71E+05, the “Total Flux Liver” value is 4.26E+08, the “Total Flux Lung” value stood at 7.26E+05 and the “Total Flux Spleen” value turned out to be 3.20E+06. The molecule further had a pKa in series [2] (setting [7]) of 6.67. Moreover, the “EE (%)” value in series [3] (setting [7]) is on record as 96.6%. This molecule gave an IP-10 in the series on IP-10 (Table 4) of 545. In series [4] (setting [7]), this molecule registered a PDI of 0.180. Further, the “Size (nm)” value in series [4] (Table 1, rows without footnote mark (lipid:DOPE:cholesterol:PEG-DMG 40:20:38.5:1.5, Luc mRNA; MC3 standard formulation)) was found to be 82.3 nm. In addition, the IL-6 with IL-6 (Table 4) was 164. In series [5] (Table 2), the “Total Flux 3 hours” value was 7.55E+09, the “Total Flux 6 hours” value is 2.49E+09 and the “Total Flux 24 hours” value came to 7.61E+08.

Regarding `CCCCC/C=C\C/C=C\CCCCCCCCN(CCO)CCCCCCCCCCCCCCCCCC` [Compound 17-6, 2-(((9Z,12Z)—Octadeca-9,12-dien-1-yl)(octadecyl)amino)ethan-1-ol], in series [1] (Table 17-3, mice), the “Total Flux Liver” value was 2.16E+07, the “Total Flux Lung” value is on record as 1.54E+05 and the “Total Flux Spleen” value is on record as 9.06E+05. This molecule yielded a pKa in series [2] (Table 17-1) of 6.73. The “EE (%)” value in series [3] (Table 17-1) is on record as 97.3%. The “encapsulation efficiency, rank within the named table (in words)” value in series [3] is given as “comparable to that for MC3”. In addition, the IP-10 with IP-10 (Table 17-4) was determined as 134. Also, in series [4] (Table 17-1), the PDI worked out at 0.117 and the “Size (nm)” value was 80.2 nm. Also, the IL-6 in the series with IL-6 (Table 17-4) turned out to be 25.0. Besides, in series [5] (Table 17-2), the “Total Flux 3 hours” value is 6.27E+07, the “Total Flux 6 hours” value was determined as 1.19E+08 and the “Total Flux 24 hours” value came out at 1.27E+07.

`CCCCCCCC/C=C\CCCCCCCCN(CCCCCCCC/C=C\CCCCCCCC)CCN(CCCCCCCC/C=C\CCCCCCCC)CCN1CCNCC1` [Compound 40, N^1,N^1,N^2-Tri((Z)-octadec-9-en-1-yl)-N^2-(2-(piperazin-1-yl)ethyl)ethane-1,2-diamine]: in series [1] (Table 3, mice), the “Total Flux Liver” value came to 1.33E+06, the “Total Flux Lung” value is recorded as 1.42E+05 and the “Total Flux Spleen” value turned out to be 5.68E+05. This molecule yielded a pKa in series [2] (setting [8]) of 6.78. Further, the “EE (%)” value in series [3] (setting [8]) is recorded as 100.0%. In addition, the “encapsulation efficiency, rank within the named table (in words)” value in series [3] is on record as “highest”. Moreover, the IP-10 in the series on IP-10 (Table 4) worked out at 919. The “Size (nm)” value in series [4] (Table 1, * formulated with lipid:DSPC:Chol:PEG-DMG 50:10:38.5:1.5) was determined as 78.9 nm. Also, in series [4] (setting [8]), the PDI turned out to be 0.210. Moreover, the IL-6 with IL-6 (Table 4) came to 134. Also, in series [5] (Table 2), the “Total Flux 3 hours” value is 1.24E+08, the “Total Flux 6 hours” value came to 1.07E+07 and the “Total Flux 24 hours” value was found to be 5.62E+06.

As to `CCCCCCCCCCCCN(CCCO)CCN(CCCCCCCCCCCC)CCCCCCCCCCCC` [Compound 20-21, 3-((2-(Didodecylamino)ethyl)(dodecyl)amino)propan-1-ol], in series [1] (Table 20-3, mice), the “Total Flux Liver” value is 1.27E+08, the “Total Flux Lung” value was found to be 1.98E+05 and the “Total Flux Spleen” value was 2.20E+06. Also, the pKa in series [2] (setting [6]) is 5.78. The “EE (%)” value in series [3] (setting [6]) came to 84.7%. In the series on IP-10 (Table 20-4, formula (20-I)), the IP-10 was 900.4. Besides, in series [4] (setting [6]), the PDI turned out to be 0.238 and the “Size (nm)” value turned out to be 78.6 nm. In the series with IL-6 (Table 20-4, formula (20-I)), the IL-6 came out at 68.4. Further, in series [5] (Table 20-2), the “Total Flux 3 hours” value is 1.43E+09, the “Total Flux 6 hours” value is recorded as 1.02E+09 and the “Total Flux 24 hours” value was 1.13E+08.

Turning to `CCCCCCCCCCCCCCN(CCCCCCCCCCCCCC)CCN(CCCO)CCCCCCCCCCCC` [Compound 20-11, 3-((2-(Ditetradecylamino)ethyl)(dodecyl)amino)propan-1-ol], in series [1] (Table 20-3, mice), the “Total Flux Liver” value is 3.60E+08, the “Total Flux Lung” value was 5.86E+05 and the “Total Flux Spleen” value worked out at 9.24E+06. The pKa in series [2] (setting [6]) was determined as 5.38. Moreover, in series [3] (setting [6]), the “EE (%)” value is reported as 97.5%. In the series with IP-10 (Table 20-4, formula (20-I)), this molecule returned an IP-10 of 1700.5. Further, in series [4] (setting [6]), the PDI worked out at 0.118 and the “Size (nm)” value came to 96.1 nm. Besides, in the series with IL-6 (Table 20-4, formula (20-I)), the IL-6 turned out to be 46.9. Besides, in series [5] (Table 20-2), the “Total Flux 3 hours” value worked out at 1.44E+09, the “Total Flux 6 hours” value stood at 8.83E+08 and the “Total Flux 24 hours” value is listed as 2.40E+07.

Regarding `CCCCCCCCCCCCN(CCO)CCN(CCCCCCCC(=O)OCCCCCCCCC)CCCCCCCC(=O)OCCCCCCCCC` [Compound 20-10, Dinonyl 8,8′-((2-(dodecyl(2-hydroxyethyl)amino)ethyl)azanediyl)dioctanoate], in series [1] (Table 20-3, mice), the “Total Flux Femur” value was determined as 3.09E+06, the “Total Flux Liver” value is 4.40E+08, the “Total Flux Lung” value came out at 5.01E+06 and the “Total Flux Spleen” value is 9.67E+07. Also, the pKa in series [2] (setting [6]) is 6.42. The “EE (%)” value in series [3] (setting [6]) is given as 91.4%. The same molecule had an IP-10 in the series with IP-10 (Table 20-4, formula (20-I)) of 2356.8. In series [4] (setting [6]), the PDI is recorded as 0.130 and the “Size (nm)” value was determined as 85.7 nm. For the same molecule, the IL-6 in the series with IL-6 (Table 20-4, formula (20-I)) is listed as 739.0. Besides, the “IL-6 induction, rank within the named table (in words)” value with IL-6 is “highest”. In series [5] (Table 20-2), the “Total Flux 3 hours” value was 5.05E+09, the “Total Flux 6 hours” value turned out to be 2.16E+09 and the “Total Flux 24 hours” value is 2.54E+08.

As usually defined, the pKa is the pH at which an ionisable group is half protonated. High values mean a group that holds its proton tightly, low ones a group that gives up its proton readily.

For the origin of these results see patent US10195156B2, “Compounds and compositions for intracellular delivery of agents” (ModernaTX, Inc., priority 2015, dated 2019).
